Measured values as given in patent publication US20190201541A1, “ANTI-CD22 ANTIBODY-MAYTANSINE CONJUGATES, COMBINATIONS, AND METHODS OF USE THEREOF” (Triphase Accelerator U.S. Corporation, priority 2017, published 2019).

Columns and labels:
Format in all cases: cell-based
Ramos cells = experiment: In vitro cytotoxicity, Cell Titer-Glo, 5 d; conditions: Homo sapiens, 120 h, 5 d incubation, read-out: IC50 against Ramos cells
Experimental: (§1) The CD22-positive B-cell lymphoma cell lines, Ramos and WSU-DLCL2, were obtained from the ATCC and DSMZ cell banks, respectively. The cells were maintained in RPMI-1640 medium (Cellgro, Manassas, Va.) supplemented with 10% fetal bovine serum (Invitrogen, Grand Island, N.Y.) and Glutamax (Invitrogen). 24 h prior to plating, cells were passaged to ensure log-phase growth. On the day of plating, 5000 cells/well were seeded onto 96-well plates in 90 μL normal growth medium supplemented with […] and 10 µg/mL streptomycin (Cellgro). Cells were treated at various concentrations with 10 μL of diluted analytes, and the plates were incubated at 37° C. in an atmosphere of 5% CO2. After 5 d, 100 μL/well of Cell Titer-Glo reagent (Promega, Madison, Wis.) was added, and luminescence was measured using a Molecular Devices SpectraMax M5 plate reader. GraphPad Prism software was used for data analysis.

WSU-DLCL2 cells = experiment: In vitro cytotoxicity, Cell Titer-Glo, 5 d; conditions: Homo sapiens, WSUDLCL2, 120 h; 5 d incubation; read-out: IC50 against WSU-DLCL2 cells
Experimental: as §1

[1] = test system: Ramos cells engineered to express MDR1 (MDR1+); experiment: In vitro cytotoxicity assay on MDR1-expressing cells; conditions: versus wild-type cells
Experimental: (§2) MDR1 (ABCB1) cDNA was obtained from Sino Biological and cloned into a pEF plasmid with a hygromycin selection marker. An AMAXA Nucleofector™ instrument was used to electroporate Ramos (ATCC CRL-1923) and WSU-DLCL2 (DSMZ ACC 575) cells according to the manufacturer's instructions. After selection with hygromycin (Invitrogen 10687010), the pools were enriched with paclitaxel treatment (25 nM for up to 10 days) to further select cells with functional MDR1. The resulting cells were maintained under hygromycin selection in RPMI (Gibco 21870-092) supplemented with 10% fetal bovine serum (FBS) and 1× GlutaMax (Gibco 35050-079).
(§3) Cell lines were plated in 96-well plates (Costar 3610) at a density of 5×10^4 cells/well in 100 μL of growth media and allowed to rest for 5 h. Serial dilution of test samples was performed in RPMI at 6× the final concentration and 20 μL was added to the cells. After incubation at 37° C. with 5% CO2 for 5 days, viability was measured using a Promega CellTiter 96® AQueous One Solution Cell Proliferation Assay (G3581) according to the manufacturer's instructions. GI50 curves were calculated in GraphPad Prism using the ADC's drug-to-antibody ratio (DAR) value to normalize the dose to the payload concentration.

[2] = test system: WSU-DLCL2 cells engineered to express MDR1 (MDR1+); experiment: as above
Experimental: as §2, §3

`COc1cc2cc(c1Cl)N(C)C(=O)C[C@H](OC(=O)[C@H](C)N(C)C(C)=O)[C@]1(C)O[C@H]1[C@H](C)[C@@H]1C[C@@](O)(NC(=O)O1)[C@H](OC)/C=C/C=C(\C)C2` [free maytansine, maytansine] was tested, and the IC50 (Ramos cells) was 0.04 nM, the IC50 (WSU-DLCL2 cells) was 0.086 nM and the “loss of efficacy in MDR1+ Ramos cells” value [1] was ~10 fold. The “potency in MDR1+ WSU-DLCL2 cells on cotreatment with cyclosporin (MDR1 inhibitor)” value ([2]; cyclosporin cotreatment) was “restored the original potency” and the “loss of efficacy in MDR1+ WSU-DLCL2 cells” value ([2]; versus wild-type cells) was ~10 fold.
